Tests used:
[1] = test system: normal human lung fibroblasts (NHLF); assay: α-thrombin-induced calcium mobilization in fibroblasts; assay type: cell-based
Procedure: The second assay developed to assess peptides from the combinatorial libraries uses inhibition of α-thrombin-induced calcium mobilization in fibroblasts. Normal human lung fibroblasts (NHLF) were purchased from Clonetics, San Diego, Calif., an affiliate of Bio-Wittaker, Walkersville, Md. The cytoplasmic free Ca^2+ concentration ([Ca^2+]i) was measured using the fluorescent Ca^2+ indicator fura-2 (Molecular Probes, Inc., Eugene, Oreg.). Suspension of fibroblasts in Hepes-Tyrode's buffer were loaded with fura-2 by incubation at 37° C. with 2 μM fura-2/acetoxymethyl ester for 45 minutes according to the method of Rasmussen et al., J. Biol. Chem. 268, 14322 (1993). The labeled fibroblasts were separated from excess probe by washing by centrifugation at 1000 rpm (180×g). Aliquots of the labeled fibroblasts were transferred into a quartz cuvette with a magnetic stirrer, which was then placed in a thermostatically controlled chamber at 37° C. in a fluorescence spectrophotometer (Perkin-Elmer LS50B spectrofluorometer, Chicago, Ill.). Reagents, test peptide, and α-thrombin (0.25–2 nM), were sequentially added directly to the cuvette. The excitation wavelengths varied between 340 and 380 nm. Fluorescence was measured by recording emitted light at 510 nm as reported by Fisher et al., Mol Pharm. 35, 195 (1989). The minimum emission was determined on a solubilized fibroblast sample in the presence of 10 mM EDTA; maximum emission was determined on the same sample with 10 mM Ca^2+ added. The intrafibroblast free Ca^2+ concentration was calculated by the method of Grykiewicz et al., J. Biol. Chem. 260, 3440 (1985). […] The KD for fura-2 was assumed to be 224 nM. Rmax and Rmin are the maximum and minimum fluorescence ratios measured at the end of the experiment, respectively; Sf2 and Sb2 are the fluorescence values at 380 nm in the absence and presence of saturating [Ca^2+], respectively. The reaction was monitored for 3–5 minutes.

[2] = test system: normal human citrated plasma; assay: prothrombin time (PT); assay type: biochemical; conditions: normal human plasma; p<0.05
Procedure: (§1) The influence of the various peptide formulations used in the present invention on established coagulation-based assays was determined. The activated partial thromboplastin time (APTT) is performed by mixing 0.05 ml normal human citrated plasma with 0.05 ml activated partial thromboplastin reagent purchased from Organon Teknika, Research Triangle Park, N.C. in the absence or presence of a peptide inhibitor. After incubation for 5 min at 37° C., the mixture is recalcified with 0.05 ml of 30 mM calcium chloride and the time to clot formation is measured in an Amelung KC4A instrument (Sigma Chemical Corp, St. Louis, Mo.) (Hasan et al. Thrombosis and Haemostasis. 82, 1182–1187 (1999)). The prothrombin time (PT) is performed by mixing 0.05 ml normal human citrated plasma with 0.05 ml Simplastin (Organon Teknika, Research Triangle Park, N.C.) followed by incubation for 3 min at 37° C. in the absence or presence of a peptide inhibitor. At the addition of 0.05 ml of 30 mM calcium chloride, the time to clot formation is measured in an KC4A instrument (Sigma Chemical Corp, St. Louis, Mo.) (Hasan et al. Thrombosis and Haemostasis. 82, 1182–1187 (1999)). The thrombin clotting time (TCT) is performed by adding 0.1 ml normal human citrated plasma in the absence or presence of a peptide inhibitor and 0.05 ml of a α-thrombin solution such that the final concentration of the thrombin in the entire mixture was 1 nM. Upon addition of the thrombin, the time to clot formation is measured in an KC4A instrument (Sigma Chemical Corp, St. Louis, Mo.). In FIG. 5, peptide TH146 produces a significant prolongation (p<0.05) of the activated partial thromboplastin time at 15 μM, of the prothrombin time at 60 μM, and the thrombin clotting time at 15 μM. In FIG. 6, peptide MAP4-TH146 produced a significant prolongation (p<0.05) of the activated partial thromboplastin time at 0.195 μM, of the prothrombin time at 3.125 μM, and the thrombin clotting time at 0.39 μM.

[3] = test system: normal human citrated plasma; assay: thrombin clotting time (TCT); assay type: biochemical; conditions: normal human plasma; p<0.05
Procedure: as §1

[4] = biological target: α-thrombin (Homo sapiens, UniProt P00734); assay: α-thrombin hydrolysis of chromogenic substrate Sar-Pro-Arg-pNA; assay type: biochemical; conditions: 1 nM α-thrombin; 0–0.5 mM peptide
Procedure: FIG. 10 examines the ability of MAP4-TH146 (β-Ala-Lys-2Lys-4(D-Arg-Oic-Pro-Gly-Phe)) to block thrombin or thrombocytin-induced proteolysis of recombinant extracellular fragment of human PAR1 (rPAR1EC). In the upper Panels, 1 μg of rPAR1EC in 10 mM Tris-HCI, 200 mM NaCl, pH 8.0 was incubated at 37° C. for 15 min or 45 min with 1 nM α-thrombin or 0.5 μg/ml (16.7 nM) thrombocytin, respectively, in the absence or presence of increasing concentrations of MAP4-TH146 (0.05 to 1.0 mM)). In the middle Panel, the ability of α-thrombin (1 nM) to hydrolyze the chromogenic substrate Sar-Pro-Arg-pNA in the presence or absence of 0–0.5 mM MAP4-TH146 was determined. In the bottom Panel, the ability of thrombocytin (16.7 nM) to hydrolyze 1 mM H-D-Phe-Pip-Arg-paranitroanilide (S2238) in the presence or absence of 0–1.0 mM MAP4-TH146 was determined. […] Alternatively, in the bottom Panel, MAP4-TH146 inhibits thrombocytin proteolysis of rPAR1EC at concentrations below that necessary to block the proteolytic activity of the enzyme.

[5] = test system: VCaP cells; assay: α-thrombin-induced intracellular calcium mobilization in VCaP cells; assay type: cell-based; conditions: 2 nM α-thrombin
Procedure: FIG. 13 examines the influence of MAP4-TH146 on thrombin-induced calcium mobilization in two prostate cancer cell lines that functionally express PAR 1. In Panel A, the influence of MAP4-TH146 on 2 nM α-thrombin-induced intracellular calcium mobilization in VCaP cells. Calcium flux is abolished by […]. At 6.25 μM MAP4-TH146, there is full recovery of thrombin-induced calcium flux. In Panel B, the influence of MAP4-TH146 on 2 nM α-thrombin-induced intracellular calcium mobilization in PC3 cells. Calcium flux is abolished by 200 μM MAP4-TH146. At 1.56 μM MAP4-TH146, calcium flux recovers.

For “β-Ala-Lys-2Lys-4(D-Arg-Oic-Pro-Gly-Phe) [MAP4-rOicPGF]”, the “concentrations that blocked α-thrombin-induced Ca^2+ mobilization in fibroblasts” value ([1]; 0.25 nM α-thrombin) was ≥ 3.1 µM, the “inhibition of calcium mobilization” value ([1]; 0.2 mM peptide, 2 nM alpha thrombin) was 98% and the “effect on alpha thrombin-induced calcium mobilization” value ([1]; 0.0016 (unit not given) peptide, 2 nM alpha thrombin) was “full recovery”. The “concentration giving significant prolongation of the PT” value [2] was 3.125 µM, the “concentration giving significant prolongation of the TCT” value [3] was 0.39 µM and the “effect on α-thrombin hydrolysis of Sar-Pro-Arg-pNA” value [4] was “directly blocking α-thrombin's proteolytic activity”. The “effect on thrombin-induced calcium flux” value ([5]; 6.25 μM peptide) was “full recovery” and the “effect on thrombin-induced calcium flux” value ([5]; 200 (unit not given) peptide) was “abolished”.

From patent US7074765B2, “Synthetic peptide analogs of Arg-Pro-Pro-Gly-Phe as selective inhibitors of thrombin and thrombin activation of protease activated receptors 1 and 4” (The Regents of the University of Michigan, priority 2003, dated 2006)
